Patent publication US20130171273A1, “METHOD OF TREATING IMPAIRED WOUND HEALING IN DIABETICS” (KUWAIT UNIVERSITY, priority 2011, published 2013)
Values joined by “and” are separate entries in the source; they are usually repeats but may differ in a detail not shown here. Equal values may be shown once. Read-outs that look alike come from different tables or passages of the source.

Key:
NADPH oxidase = test: NADPH-dependent superoxide generation in membrane fractions (lucigenin chemiluminescence / SOD-inhibitable cytochrome c reduction); assay type: biochemical, rat; details: membrane fractions of diabetic fibroblasts
Procedure: To study NADPH oxidase activity, cell pellets collected by trypsinization and suspended in 20 mM MOPS-KOH buffer, pH 7.4 containing 250 mM, 0.1 mM EDTA and a cocktail of protease inhibitors. The cells were disrupted by sonication on ice and the cell lysates were fractionated by centrifugation twice at 29,000×g for 15 min, discarding the supernatant each time. The pellet was resuspended in sucrose buffer and assayed for NADPH oxidase activity using lucigenin chemiluminescence or cytochrome c reduction-based assay. Briefly, membrane fractions (˜10 μg protein) were diluted in sucrose buffer/protease inhibitors and then lucigenin was added ((5 μM) in the presence or absence of 100 μM NADPH. The chemiluminescence was measured in 30 sec intervals over 5 min. The specificity of superoxide measured was confirmed by adding peg-SOD (10 units/ml). For the assessment of SOD-inhibitable cytochrome reduction, ˜100 μg membrane protein was added to a buffer containing cytochrome c (50 μM), NADPH (100 μM) and in the presence or absence of peg-SOD. After one hr, activity was measured as the SOD-inhibitable increase in absorbance at 550 nm (EmM=21). Assay conditions were established confirming the linearity of superoxide production with time and protein concentrations.
Following the procedures above, it was determined that superoxide generation over a 30-minute period was 55% higher in DFs relative to corresponding control values (FIG. 1A). This radical is a by-product of mitochondrial respiration and enzymatic oxidases. Accordingly, it was examined whether the observed elevation in superoxide stemmed from enhanced activity of the non-phagocytic NAD(P)H oxidase.

CFs and DFs = test: Lipid peroxidation (DPPP fluorescence) in control and diabetic fibroblasts; assay type: cell-based, rat; details: stressed CFs and DFs; markedly higher in diabetic than in control cells, FIG. 1E
Procedure: To measure lipid peroxidation and plasma membrane redox system (PMRS) enzymes, a total of 10-20 μg of purified plasma membrane protein in a butler containing 50 mM Tris at pH 7.6, 0.2 mM NADH, and 0.1% Triton X-100 was analyzed in the spectrophotometric determination (340 nm) of the activities of NADH CoQ and NADH-ascorbate free radical reductase [also known cytochrome b5 reductase, following the respective additions of coenzyme Q (0.2 mM) and fresh ascorbate (0.4 mM). NQO1 activity was measured at 550 nm in solution buffer containing 5 mM. Tris-HCl at pH 7.6, 0.2 mM NADPH, 0.1% Triton X-100, 10 μM menadione and 75 μM cytochrome c with or without dicoumarol. Calculation of the activity of NQO1 was based on the difference between the uninhibited and the dicoumarol-inhibited samples. Cells were assessed for lipid peroxidation using the diphenyl-1-pyrenylphosphine (DPPP, Invitrogen) fluorescence-based assay. […] The plate was read for DPPP fluorescence (excitation at 340 nm and emission at 405 nm) in a 96-well fluorescence plate reader. […]
To monitor whether the diabetes-induced elevation in intracellular levels of ROS may reflect an increase in lipid peroxidation, a marker of accumulative oxidative stress (OS), the lipid peroxide formation of CFs and DFs at baseline and under stressed conditions was measured using the dye DPPP, which intercalates and reacts with lipid hydroperoxides.

[1] = system: diabetic fibroblasts (DFs); test: Superoxide generation in diabetic fibroblasts (dihydroethidium fluorescence); assay type: cell-based, rat; details: superoxide generation over a 30-minute period, FIG. 1A
Procedure: Primary rat fibroblasts were derived from dorsal skin biopsies performed on four diabetic Goto Kakizaki rats (DFs) and four age (12-14 months) and sex (female) matched Wistar control rats (CFs). After sterilization in povidine solution, the rat skin was washed in sterile water and rinsed in 70% ethanol in phosphate buffered saline (PBS). The epidermis and dermis were separated following overnight incubation in 0.25% Trypsin/EDTA at 4° C. Samples were washed, diced and digested for thirty min at 37° C. in collagenase type I (250 U/ml) dissolved in Dulbecco's modified Eagle medium (DMEM; Invitrogen) containing penicillin (100 U/ml), streptomycin (100 μg/ml), 2 mM L-glutamine and 26 mM HEPES. After collagenase treatment, the cells were dislodged, centrifuged and resuspended in medium supplemented with 10% fetal bovine serum. […]
To characterize oxidative conditions of cutaneous tissue, cells in 96-well plates were washed with Krebs Ringer buffer and then incubated at 37° C. in the presence of 10 μM of dihydroethidium (DHE, Molecular Probes). Fluorescence readings were taken at Ex 530 nm and Em=595 nm over a 30 min period. The determination of GSH (reduced glutathione) was achieved using the fluorescence probe monochlorobimane (MCB, Molecular Probes). Cells were incubated with 100 μl of […] MCB for 20 min at 37° C., and the fluorescence intensity was measured at Ex=390 nm and Em=460 nm. […]

Nrf2 [2] = test: Nuclear accumulation of Nrf2 in diabetic fibroblasts (subcellular fractionation, Western blot); assay type: cell-based, rat; details: for nuclear accumulation of Nrf2: DFs, OS-inducing agent, compared with CFs, FIG. 3D
Procedure: To quantify responses to oxidative stress activators, fibroblasts of control and of type 2 diabetes were treated with vehicle or the OS-inducing agents ‘t-butylhydroquinone (tBHQ, 100 μM, Sigma) or oligomycin (15 μM, Sigma) for 16 h. The Cells were processed for total RNA extraction or western blotting analysis as outlined below. Both of these compounds were dissolved in ethanol with a final concentration of 0.01%. […] To analyze protein expression and phosphorylation, cells were seeded in 6-well plates and treated as described above. They were washed with ice-cold PBS, scraped into PBS, and centrifuged at 1000 rpm for 5 min. The cell pellet was then subjected to subcellular fractionation. To make the total cell lysate, the cells were lysed with RIPA buffer supplemented with a protease inhibitor mixture and a phosphatase inhibitor mixture. The protein concentration was determined using BCA protein assay reagents (Pierce). Fifty micrograms of total cell lysate (or cytosolic, or nuclear) fractions were resolved on a 10% SDS-polyacrylamide gel, Western blotted, and probed with antibodies specific for Nrf2, Kcap1 or Fyn (all from Santa Cruz) or GSK-3β, GSK-3β-phosho-Ser9 (P-GSK3-β, and phosphor GSK-α/-β (pTyr279/pTyr216) (Cell Signaling). The purity of the subcellular fractions was confirmed using the anti-LDH antibody (Chemieon International) and the anti-PCNA antibody (Santa Cruz) for cytosolic and nuclear fractions, respectively. The levels of protein on a Western blot were assessed using Quantity One Image software (Bio-Rad) and normalized against suitable loading controls, including anti-β-actin antibody for total and cytosolic fractions and anti-PCNA antibody for the nuclear fraction.

[3] = system: control fibroblasts (CFs); test: mRNA of Nrf2-regulated genes by real-time PCR in control fibroblasts; assay type: cell-based, rat
Procedure: (§1) To quantify responses to oxidative stress activators, fibroblasts of control and of type 2 diabetes were treated with vehicle or the OS-inducing agents ‘t-butylhydroquinone (tBHQ, 100 μM, Sigma) or oligomycin (15 μM, Sigma) for 16 h. The Cells were processed for total RNA extraction or western blotting analysis as outlined below. Both of these compounds were dissolved in ethanol with a final concentration of 0.01%. […] To measure transcription of Nrf2 target genes and NADPH oxidase genes, RNA (1 μg) was isolated from cultured fibroblasts using Trizol reagent (Invitrogen) and reverse transcribed for 1 h at 37° C. using the High Capacity cDNA Reverse Transcription Kit. Real-time quantitative RT-PCR was performed with the TaqMan Gene Expression Assay and was normalized against 18S RNA using an ABI 7900 Real-time PCR System (Applied Biosystems). Primers and probes were designed by and purchased from Applied Biosystems. Primer efficiency and specificity were verified by amplifying standard dilutions of a probe obtained by pooling all the samples and by melting curve analysis, respectively.

Nrf2 [4] = test: Nuclear accumulation of Nrf2 in control fibroblasts (subcellular fractionation, Western blot); assay type: cell-based, rat; details: CFs, OS-inducing agent, FIG. 3D
Procedure: (§2) To quantify responses to oxidative stress activators, fibroblasts of control and of type 2 diabetes were treated with vehicle or the OS-inducing agents ‘t-butylhydroquinone (tBHQ, 100 μM, Sigma) or oligomycin (15 μM, Sigma) for 16 h. The Cells were processed for total RNA extraction or western blotting analysis as outlined below. Both of these compounds were dissolved in ethanol with a final concentration of 0.01%. […] To analyze protein expression and phosphorylation, cells were seeded in 6-well plates and treated as described above. They were washed with ice-cold PBS, scraped into PBS, and centrifuged at 1000 rpm for 5 min. The cell pellet was then subjected to subcellular fractionation. To make the total cell lysate, the cells were lysed with RIPA buffer supplemented with a protease inhibitor mixture and a phosphatase inhibitor mixture. The protein concentration was determined using BCA protein assay reagents (Pierce). […]

[5] = system: control fibroblasts (CFs); test: Caspase-3-like activity (Apo-ONE caspase-3/7 assay), control fibroblasts; assay type: cell-based, rat
Procedure: (§3) To quantify relative cell death in control and diabetic fibroblasts, cells were seeded at 1×10^4 cells/well on a 96-well plate. After a 24 h incubation period, the cells were exposed to various concentrations of HP in serum-free medium at 37° C. for 2 h [lactate dehydrogenase (LDH), a marker for necrotic cell death] or for 16 h (cell viability and apoptosis assay). Quantification of cell viability and caspase-3-like activity was achieved using a Cell Counting Kit-8 (Dojindo, Kumamoto, Japan) and an Apo-ONE homogenous caspase-3/7 assay (Promega), respectively. The values obtained were normalized to the vehicle-treated cells. To measure the rate of necrotic cell death, a LDH release assay was performed using a CytoTox-ONE Homogeneous Membrane Integrity Assay kit (Promega). In some experiments, cells were pre-incubated for 1 h with 2 μg of the ATPase inhibitor oligomycin before exposure to HP.

[6] = system: diabetic fibroblasts (DFs); details: for loss in cell viability: rat, 16 h
Procedure: as §3

[7] = system: control fibroblasts (CFs); details: rat, 16 h
Procedure: as §3

[8] = system: diabetic fibroblasts (DFs); test: mRNA of Nrf2-regulated genes by real-time PCR in diabetic fibroblasts; assay type: cell-based, rat; details: tBHQ treatment
Procedure: as §1

Nrf2 [9] = test: Nrf2 level in total cell lysates (Western blot); assay type: cell-based, rat; details: control and diabetic fibroblasts, to about the same extent, FIG. 3A
Procedure: as §2

[10] = CFs / normal fibroblasts, tBHQ treatment

Compound: Oc1ncnc2[nH]ncc12 [allopurinol]
- effect on superoxide production (NADPH oxidase): did not have a significant effect

Compound: CC(C)(C)OO [t-BHP]
- lipid peroxidation (DPPP fluorescence) (CFs and DFs): enhancement in lipid peroxidation

Compound: c1ccc(Cn2nnc3c(Sc4nc5ccccc5o4)ncnc32)cc1 [VAS2870]
- reduction of NADPH-dependent superoxide production (activity) (NADPH oxidase; FIG. 1B): about 87%
- reduction of the diabetes-related increase in superoxide [1]: about 31%

Compound: CC[C@H]1/C=C/C=C/C[C@@H](C)[C@H](O)[C@@](C)(O)C(=O)[C@@H](C)[C@H](O)[C@@H](C)C(=O)[C@@H](C)[C@H](O)[C@@H](C)/C=C/C(=O)O[C@@H]2[C@H](C)[C@H](CC1)O[C@]1(CC[C@H](C)[C@H](C[C@@H](C)O)O1)[C@H]2C [oligomycin]
- nuclear accumulation of Nrf2 (Nrf2 [2]): far smaller increase
- expression of Mn-SOD, catalase, GSTP1, GCLC and NQO1 mRNA ([3]; CFs, oligomycin treatment, FIG. 3F): increase in the expression of Mn-SOD, catalase, GSTP1 and GCLC but not of NQO1
- Nrf2 in the nuclei-enriched fraction (Nrf2 [4]): markedly elevated
- ability of HP to enhance caspase-3-like activities ([5]; CFs pre-treated with a 2-μg dose of oligomycin): suppresses

Compound: COC(=O)[C@@H](N)CCCNC(=N)N[N+](=O)[O-] [L-NAME]
- effect on superoxide production (NADPH oxidase): did not have a significant effect

Compound: OO [HP, hydrogen peroxide]
- lipid peroxidation (DPPP fluorescence) (CFs and DFs): enhancement in lipid peroxidation
- fold increase in caspase-3-like activity ([6]; 50 μM HP): 5.4 fold
- loss in cell viability ([6]; 37.5 μM): 17%
- loss in cell viability ([6]; 50 μM): 55%
- loss in cell viability ([6]; 75 μM): 78%
- loss in cell viability ([7]; 37.5 μM): 6%
- loss in cell viability ([7]; 50 μM): 22%
- loss in cell viability ([7]; 75 μM): 53%
- fold increase in caspase-3-like activity ([5]; controls (CFs), 50 μM HP): 8.2 fold

Compound: CC(C)(C)c1cc(O)ccc1O [tBHQ, tert-butylhydroquinone]
- percent increase of Nrf2-dependent transcripts (catalase, GSTP1, GCLC, NQO1) ([8]; DFs, FIG. 3E): 32%-78%
- upregulation of anti-oxidative enzymes ([8]; cells with overabundant oxidative stress and impaired Nrf2 response): 1.5 to 2 fold
- nuclear accumulation of Nrf2 (Nrf2 [2]): far smaller increase
- level of Nrf2 in total cell lysates (Nrf2 [9]): elevates
- increase of GCLC mRNA expression [3, 10]: 5-7 fold and 5.7 fold
- increase of GSTP1 mRNA expression [3, 10]: 5-7 fold and 6.3 fold
- increase of NQO1 mRNA expression [3, 10]: 4-6 fold and 4.8 fold
- increase of catalase mRNA expression [3, 10]: 7-10 fold and 8.8 fold
- increase of GR mRNA expression ([3]; normal fibroblasts, tBHQ treatment): 3-4 fold
- levels of Cu/Zn SOD or Mn-SOD (SOD2) mRNA ([3]; tBHQ treatment, cell type not given): no observable changes
- Nrf2 in the nuclei-enriched fraction (Nrf2 [4]): markedly elevated

Compound: Cn1sc(=O)n(Cc2ccccc2)c1=O [TDZD-8, 4-benzyl-2-methyl-1,2,4-thiadiazolidine-3,5-dione]
- basal and inducible levels of nuclear Nrf2 (Nrf2 [2]; DFs pretreated 8 h with lithium chloride 50 mM or TDZD-8 50 μM, FIG. 4B only shown for lithium): partially normalized
